Measured values: patent US20060110732A1, “Method for the identification of ligands” (priority 2002, published 2006)
Like-named read-outs stand apart in the source and are kept apart here. Each block holds one compound with its values, some of them ahead of it.

Key:
ER-α [1] = biological target: T1, ER-α (Homo sapiens, UniProt P03372); test: biochemical
T1 sequence (P03372 1-595): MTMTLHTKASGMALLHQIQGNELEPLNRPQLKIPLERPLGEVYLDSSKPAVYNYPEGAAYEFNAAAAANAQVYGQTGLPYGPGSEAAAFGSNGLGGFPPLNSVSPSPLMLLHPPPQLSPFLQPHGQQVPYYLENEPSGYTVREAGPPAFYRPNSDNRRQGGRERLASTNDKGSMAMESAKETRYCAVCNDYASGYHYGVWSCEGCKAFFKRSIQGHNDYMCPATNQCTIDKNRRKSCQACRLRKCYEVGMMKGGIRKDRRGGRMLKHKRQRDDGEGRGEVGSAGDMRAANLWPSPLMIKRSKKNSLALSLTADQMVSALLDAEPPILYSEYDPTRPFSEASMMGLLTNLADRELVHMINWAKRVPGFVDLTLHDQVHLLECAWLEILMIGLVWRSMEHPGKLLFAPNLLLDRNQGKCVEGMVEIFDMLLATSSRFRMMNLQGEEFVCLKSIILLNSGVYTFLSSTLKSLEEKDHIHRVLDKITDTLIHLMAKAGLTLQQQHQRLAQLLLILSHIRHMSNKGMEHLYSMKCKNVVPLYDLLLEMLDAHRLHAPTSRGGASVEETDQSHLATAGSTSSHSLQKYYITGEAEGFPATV
Procedure: (§1) A 2 μL ligand solution at 2 times the final concentration was dispensed with a micropipette into a 384 well black wall Greiner plate. Then, 2 μL of the protein dye solution was dispensed on top of the ligand solution in the 384 well plate. The plates were spun to ensure nixing of the protein-dye and ligand solutions followed by layering of 1 μL of silicone oil to prevent evaporation during heating of the samples. […] The values for the co-regulators represent a change in Tm stabilization from the receptor-ligand ΔTm values.

ER-β [2] = biological target: T2, ER-β (Homo sapiens, UniProt Q92731); settings: ligand 40 μM; for Change in Tm stabilization from receptor-ligand ΔTm, SRC1: SRC-1 20 μM; for Observed ΔTm stabilization, Ligand: no co-activator
T2 sequence (Q92731 whole entry, species assumed): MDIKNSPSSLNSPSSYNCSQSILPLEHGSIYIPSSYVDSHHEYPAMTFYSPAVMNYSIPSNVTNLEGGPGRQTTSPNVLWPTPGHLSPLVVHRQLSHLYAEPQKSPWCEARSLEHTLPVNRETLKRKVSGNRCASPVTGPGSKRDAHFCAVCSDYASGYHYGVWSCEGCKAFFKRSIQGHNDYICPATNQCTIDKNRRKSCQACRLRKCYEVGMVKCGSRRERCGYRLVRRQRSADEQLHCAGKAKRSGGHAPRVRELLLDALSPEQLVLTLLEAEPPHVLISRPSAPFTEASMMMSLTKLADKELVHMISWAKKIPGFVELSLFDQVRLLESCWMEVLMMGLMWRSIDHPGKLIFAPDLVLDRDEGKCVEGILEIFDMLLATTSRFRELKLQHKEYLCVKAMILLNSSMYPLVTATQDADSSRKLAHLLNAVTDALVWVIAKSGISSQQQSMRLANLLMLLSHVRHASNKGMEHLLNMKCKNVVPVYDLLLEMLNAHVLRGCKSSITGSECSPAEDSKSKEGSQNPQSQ

ER-β [3] = biological target: T2, ER-β; test: Microplate thermal shift (Thermofluor) of ER-β with ligands and co-regulators, Example 1; format: binding; set-up: Observed ΔTm stabilization, ligand alone / Change in Tm stabilization from receptor-ligand ΔTm, SRC-3 / Change in Tm stabilization from receptor-ligand ΔTm, NcoR1-NR1: unit not given here; settings: ER-β 8 μM, ligand 20 μM
Procedure: as §1

ER-α [4] = biological target: T1, ER-α; test: biochemical; remark: listed apart in the source
Procedure: Table 4, shown below, is a summary of the data obtained for ER-α and ER-β in the presence of the coactivator proteins SRC-1 SRC-2 and SRC-3 and in the presence of seven ligands. The concentration of ER-α in all experiments was 8 μM, the ligand concentration was 40 μM, SRC-1 and SRC-3 were at 20 μM.
(§2) A 2 μL ligand solution at 2 times the final concentration was dispensed with a micropipette into a 384 well black wall Greiner plate. Then 2 μL of the protein dye solution was dispensed on top of the ligand solution in the 384 well plate. The plates were spun to ensure mixing of the protein-dye and ligand solutions followed by layering of 1 μL of silicone oil to prevent evaporation during heating of the samples. Data were collected on a Thermofluor apparatus and data were analyzed using software that employs a non-linear Marquardt algorithm. Reported results are the average of four experiments. The values for the co-regulators represent a change in Tm stabilization from the receptor-ligand ΔTm values.
FIG. 3 illustrates binding constants, Ka, for co-activator proteins SRC-1, SRC-2 and SRC-3 in the presence of ER-α ligands. FIG. 4 illustrates binding constants, Ka, for co-activator proteins SRC-1, […] in the presence of ER-β ligands Binding constants were calculated from the observed induced ligand and co-regulator stabilization of the nuclear receptor.

PPAR-γ [5] = biological target: T3, PPAR-γ (Homo sapiens, UniProt P37231); test: Microplate thermal shift of PPAR-γ with ligands, co-activator peptide and co-repressor peptide NCoR-1, Example 5; format: binding; settings: for Observed stabilization of PPAR-γ, SRC1-NR2 / Observed stabilization of PPAR-γ, NCoR-1 / Observed stabilization of PPAR-γ, Ligand: PPAR-γ 8 μM, ligand 40 μM; for Observed stabilization of PPAR-γ, SRC1-NR2: co-activator peptide 200 μM; for Observed stabilization of PPAR-γ, NCoR-1: co-repressor peptide NCoR-1 200 μM; for Observed stabilization of PPAR-γ, Ligand: no peptide; for Thermofluor Prediction (PPAR-γ): based on relative affinities for co-activator and co-repressor peptides, partial = partial agonist
T3 sequence (P37231 1-505): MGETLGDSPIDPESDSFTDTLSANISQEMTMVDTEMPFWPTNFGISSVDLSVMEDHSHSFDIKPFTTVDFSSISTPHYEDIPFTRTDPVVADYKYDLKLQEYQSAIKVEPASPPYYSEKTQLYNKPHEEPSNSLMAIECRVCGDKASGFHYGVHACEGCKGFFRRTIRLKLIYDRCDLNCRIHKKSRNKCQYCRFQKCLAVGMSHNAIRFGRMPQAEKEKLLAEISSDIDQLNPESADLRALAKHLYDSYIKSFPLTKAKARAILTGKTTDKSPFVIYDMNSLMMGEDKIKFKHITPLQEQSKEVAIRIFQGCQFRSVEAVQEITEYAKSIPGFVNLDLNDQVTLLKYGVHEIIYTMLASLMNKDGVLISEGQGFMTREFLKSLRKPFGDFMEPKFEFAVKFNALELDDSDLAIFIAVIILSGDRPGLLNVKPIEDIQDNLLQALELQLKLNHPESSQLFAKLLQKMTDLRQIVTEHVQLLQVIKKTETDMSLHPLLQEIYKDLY
Procedure: as §2, with “The experiments were performed in 25 mM HEPES pH 7.9, 200 mM NaCl, […] and in the presence of 50 μM dapoxyl-2-amino-ethyl sulfonamide. A” for “A”, “experiments.” for “experiments. The values for the co-regulators represent a change in Tm stabilization from the receptor-ligand ΔTm values.”

PPAR-γ [6] = biological target: T3, PPAR-γ; settings: reported in literature; partial = partial agonist; cited from earlier work
ER-β [7] = biological target: T2, ER-β; test: biochemical
ER-α [8] = biological target: T1, ER-α; test: Microplate thermal shift of ER-α against a panel of steroid ligands, Example 2; format: binding; settings: ER-α 8 μM, ligand 20 μM, 25 mM phosphate pH 8.0; average of four experiments
Procedure: The concentration of ER-α in all of the experiments was 8 μM and the ligand concentration was 20 μM.
A 2 μL ligand solution at 2 times the final concentration was dispensed with a micropipette into a 384 well black wall Greiner plate. Then, 2 μL of the protein dye solution was dispensed on top of the ligand solution in the 384 well plate. The plates were spun to ensure mixing of the protein-dye and ligand solutions followed by layering of 1 μL of silicone oil to prevent evaporation during heating of the samples.

[9] = read-out: Change in Tm stabilization from receptor-ligand ΔTm, SRC1
[10] = read-out: Change in Tm stabilization from receptor-ligand ΔTm, SRC3

Compound: 4-hydroxytamoxifen [4-OH-tamoxifen]
Classification as agonist or antagonist for ER-α (ER-α [1]): antagonist

Compound: 17-α-ethylene-estradiol [17-α-ethylene-E2]
Change in Tm stabilization from receptor-ligand ΔTm, SRC1 (ER-β [2]): 1.1

Change in Tm stabilization from receptor-ligand ΔTm, NcoR1-NR1 (ER-α [1]; ER-α 8 μM, ligand 20 μM, co-repressor peptide NCoR-1 100 μM): −0.7
Observed ΔTm stabilization, ligand alone (ER-α [1]; ER-α 8 μM, ligand 20 μM, no co-regulator, average of four experiments): 3.5
Classification as agonist or antagonist for ER-α (ER-α [1]; if screened against a panel of co-regulators as in Example 1): agonists
Change in Tm stabilization from receptor-ligand ΔTm, SRC1-NR2 (ER-β [3]; co-activator peptide SRC1-NR2 100 μM): 4.4
Change in Tm stabilization from receptor-ligand ΔTm, SRC3-NR2 (ER-β [3]; co-activator peptide SRC3-NR2 100 μM): 4.4
Change in Tm stabilization from receptor-ligand ΔTm, SRC-3 (ER-β [3]; co-activator protein SRC-3 11 μM): 2.5
Change in Tm stabilization from receptor-ligand ΔTm, NcoR1-NR1 (ER-β [3]; co-repressor peptide NCoR-1 100 μM): −0.7
Observed ΔTm stabilization, ligand alone (ER-β [3]; no co-regulator, average of four experiments): 2.9
Change in Tm stabilization from receptor-ligand ΔTm, SRC1 (ER-α [4]; ER-α 8 μM, ligand 40 μM, SRC-1 20 μM): 2.1
Observed ΔTm stabilization, Ligand (ER-α [4]; ER-α 8 μM, ligand 40 μM, no co-activator): 3.5
Change in Tm stabilization from receptor-ligand ΔTm, SRC1 (ER-β [2]): 1.0
Change in Tm stabilization from receptor-ligand ΔTm, SRC3 (ER-β [2]; SRC-3 20 μM): 2.5
Change in Tm stabilization from receptor-ligand ΔTm, SRC2 (ER-β [2]; co-activator protein SRC-2): 2.4
Observed ΔTm stabilization, Ligand (ER-β [2]): 2.9
Compound: COc1cc2c(cc1O)CC[C@@H]1[C@@H]2CC[C@]2(C)[C@@H](O)CC[C@@H]12 [2-methoxy-E2, 2-methoxy-estradiol]

Compound: CC(C)(c1ccc(OCC2CO2)cc1)c1ccc(OCC2CO2)cc1 (stereo not drawn) [BADGE]
Observed stabilization of PPAR-γ, SRC1-NR2 (PPAR-γ [5]): 1.1
Observed stabilization of PPAR-γ, NCoR-1 (PPAR-γ [5]): 5.5
Observed stabilization of PPAR-γ, Ligand (PPAR-γ [5]): 1.1
Thermofluor Prediction (PPAR-γ) (PPAR-γ [5]): Antagonist
Literature profile of ligand (PPAR-γ [6]): Antagonist γ

ΔTm at 20 µM (ER-β [7]; [9]): 0.5 °C
Compound: C[C@]12CC[C@@H]3c4ccc(O)cc4CC[C@H]3[C@@H]1CC[C@@H]2O [Estradiol]

Observed stabilization of PPAR-γ, SRC1-NR2 (PPAR-γ [5]): 1.2
Observed stabilization of PPAR-γ, NCoR-1 (PPAR-γ [5]): 3.5
Observed stabilization of PPAR-γ, Ligand (PPAR-γ [5]): 5.9
Thermofluor Prediction (PPAR-γ) (PPAR-γ [5]): Antagonist
Compound: O=C(Nc1ccccc1)c1cc([N+](=O)[O-])ccc1Cl [GW9662]
Literature profile of ligand (PPAR-γ [6]): Antagonist γ

Co-activator recruitment / additional stabilization, conclusion in words (ER-α [1]; from Table 1, both receptors ER-α and ER-β): no ability to recruit co-activators
ΔTm at 11 µM (ER-α [1]; read-out: Change in Tm stabilization from receptor-ligand ΔTm, SRC-3): 0.5 °C
ΔTm at 11 µM (ER-β [3]; co-activator protein SRC-3 11 μM, read-out: Change in Tm stabilization from receptor-ligand ΔTm, SRC-3): 0.9 °C
ΔTm at 20 µM (ER-α [4]; [9]): 0.4 °C
ΔTm at 20 µM (ER-α [4]; [10]): 0.5 °C
Observed ΔTm stabilization, Ligand (ER-β [2]): 16.7
ΔTm at 20 µM (ER-β [7]; [9]): 0.5 °C
ΔTm at 20 µM (ER-β [7]; [10]): 0.9 °C
Compound: C[C@]12CC[C@@H]3c4ccc(O)cc4C[C@@H](CCCCCCCCC[S+]([O-])CCCC(F)(F)C(F)(F)F)[C@H]3[C@@H]1CC[C@@H]2O (stereo partly drawn) [ICI-182780]
Co-activator recruitment, conclusion in words (ER-α [4]; from Table 4 and FIGS. 3 and 4, SRC-1, SRC-2, SRC-3, ER-α (b172 also ER-β)): very little ability to recruit co-activator

Observed stabilization of PPAR-γ, SRC1-NR2 (PPAR-γ [5]): 1.5
Observed stabilization of PPAR-γ, NCoR-1 (PPAR-γ [5]): 5.0
Observed stabilization of PPAR-γ, Ligand (PPAR-γ [5]): 1.0
Thermofluor Prediction (PPAR-γ) (PPAR-γ [5]): Antagonist
Compound: Cc1cccc(Nc2cc(Cl)nc(SCC(=O)O)n2)c1C [WY14643]
Literature profile of ligand (PPAR-γ [6]): Partial α, antagonist γ

Compound: C[C@]12CCC(=O)C=C1CC[C@@H]1[C@@H]2C(=O)C[C@@]2(C)[C@H]1CC[C@]2(O)C(=O)CO [cortisone]
ΔTm (ER-α [8]): 0.01 °C
